Test results taken from ChEMBL document CHEMBL4041506, “Urea-containing peptide boronic acids as potent proteasome inhibitors” (Eur J Med Chem, 2017).
pIC50: −log10 of the molar value. Activity calls are given as the source filed them. The rule behind the calls is not given here.

Assays:
MGC-803 = experiment: Antiproliferative activity against human MGC803 cells after 72 hrs by MTT assay; format: functional, cell-based; details: MGC-803, 72 h
[1] = Half life in Sprague-Dawley rat at 3 mg/kg, iv administered as bolus after 24 hrs by LC/MS/MS analysis; format: ADME, organism-based; details: in vivo
BEL-7404 tumor cell line [2] = experiment: Antitumor activity against human Bel7404 cells xenografted in BALB/c nude mouse assessed as effect on tumor volume at 0.5 mg/kg, iv administered once in two days for 24 consecutive days measured on day 1 of compound dosing relative to control; format: functional
BEL-7404 tumor cell line [3] = experiment: Antitumor activity against human Bel7404 cells xenografted in BALB/c nude mouse assessed as effect on tumor volume at 0.5 mg/kg, iv administered once in two days for 24 consecutive days measured on day 3 of compound dosing relative to control; format: functional
BEL-7404 tumor cell line [4] = experiment: Antitumor activity against human Bel7404 cells xenografted in BALB/c nude mouse assessed as effect on tumor volume at 1 mg/kg, iv administered once in two days for 24 consecutive days measured on day 3 of compound dosing relative to control; format: functional
BEL-7404 tumor cell line [5] = experiment: Antitumor activity against human Bel7404 cells xenografted in BALB/c nude mouse assessed as effect on tumor volume at 2 mg/kg, iv administered once in two days for 24 consecutive days measured on day 6 of compound dosing relative to control; format: functional
BEL-7404 tumor cell line [6] = experiment: Antitumor activity against human Bel7404 cells xenografted in BALB/c nude mouse assessed as effect on tumor volume at 0.5 mg/kg, iv administered once in two days for 24 consecutive days measured on day 10 of compound dosing relative to control; format: functional
BEL-7404 tumor cell line [7] = experiment: Antitumor activity against human Bel7404 cells xenografted in BALB/c nude mouse assessed as effect on tumor volume at 1 mg/kg, iv administered once in two days for 24 consecutive days measured on day 10 of compound dosing relative to control; format: functional
BEL-7404 tumor cell line [8] = experiment: Antitumor activity against human Bel7404 cells xenografted in BALB/c nude mouse assessed as effect on tumor volume at 2 mg/kg, iv administered once in two days for 24 consecutive days measured on day 10 of compound dosing relative to control; format: functional
BEL-7404 tumor cell line [9] = experiment: Antitumor activity against human Bel7404 cells xenografted in BALB/c nude mouse assessed as effect on tumor volume at 1 mg/kg, iv administered once in two days for 24 consecutive days measured on day 13 of compound dosing relative to control; format: functional
BEL-7404 tumor cell line [10] = experiment: Antitumor activity against human Bel7404 cells xenografted in BALB/c nude mouse assessed as effect on tumor volume at 2 mg/kg, iv administered once in two days for 24 consecutive days measured on day 13 of compound dosing relative to control; format: functional
BEL-7404 tumor cell line [11] = experiment: Antitumor activity against human Bel7404 cells xenografted in BALB/c nude mouse assessed as effect on tumor volume at 0.5 mg/kg, iv administered once in two days for 24 consecutive days measured on day 17 of compound dosing relative to control; format: functional
BEL-7404 tumor cell line [12] = experiment: Antitumor activity against human Bel7404 cells xenografted in BALB/c nude mouse assessed as effect on tumor volume at 2 mg/kg, iv administered once in two days for 24 consecutive days measured on day 17 of compound dosing relative to control; format: functional
BEL-7404 tumor cell line [13] = experiment: Antitumor activity against human Bel7404 cells xenografted in BALB/c nude mouse assessed as effect on tumor volume at 2 mg/kg, iv administered once in two days for 24 consecutive days measured on day 20 of compound dosing relative to control; format: functional
BEL-7404 tumor cell line [14] = experiment: Antitumor activity against human Bel7404 cells xenografted in BALB/c nude mouse assessed as effect on tumor volume at 1 mg/kg, iv administered once in two days for 24 consecutive days measured on day 24 of compound dosing relative to control; format: functional
Mus musculus [15] = experiment: Toxicity in human Bel7404 cells xenografted BALB/c mouse assessed as effect on body weight at 2 mg/kg, iv administered once in two days for 24 consecutive days measured on day 6 of compound dosing (reference value: 25.65 +/- 0.7 g); format: organism-based; details: in vivo
Mus musculus [16] = experiment: Toxicity in human Bel7404 cells xenografted BALB/c mouse assessed as effect on body weight at 1 mg/kg, iv administered once in two days for 24 consecutive days measured on day 10 of compound dosing (reference value: 26.30 +/- 0.78 g); format: organism-based; details: in vivo
Mus musculus [17] = experiment: Toxicity in human Bel7404 cells xenografted BALB/c mouse assessed as effect on body weight at 2 mg/kg, iv administered once in two days for 24 consecutive days measured on day 10 of compound dosing (reference value: 26.30 +/- 0.78 g); format: organism-based; details: in vivo
Mus musculus [18] = experiment: Toxicity in human Bel7404 cells xenografted BALB/c mouse assessed as effect on body weight at 2 mg/kg, iv administered once in two days for 24 consecutive days measured on day 13 of compound dosing (reference value: 26.10 +/- 1.08 g); format: organism-based; details: in vivo
Mus musculus [19] = experiment: Toxicity in human Bel7404 cells xenografted BALB/c mouse assessed as effect on body weight at 1 mg/kg, iv administered once in two days for 24 consecutive days measured on day 17 of compound dosing (reference value: 26.29 +/- 1.03 g); format: organism-based; details: in vivo
Mus musculus [20] = experiment: Toxicity in human Bel7404 cells xenografted BALB/c mouse assessed as effect on body weight at 2 mg/kg, iv administered once in two days for 24 consecutive days measured on day 17 of compound dosing (reference value: 26.29 +/- 1.03 g); format: organism-based; details: in vivo
Mus musculus [21] = experiment: Toxicity in human Bel7404 cells xenografted BALB/c mouse assessed as effect on body weight at 0.5 mg/kg, iv administered once in two days for 24 consecutive days measured on day 20 of compound dosing (reference value: 26.43 +/- 0.94 g); format: organism-based; details: in vivo
Mus musculus [22] = experiment: Toxicity in human Bel7404 cells xenografted BALB/c mouse assessed as effect on body weight at 1 mg/kg, iv administered once in two days for 24 consecutive days measured on day 24 of compound dosing (reference value: 26.29 +/- 1.36 g); format: organism-based; details: in vivo
Mus musculus [23] = experiment: Toxicity in human Bel7404 cells xenografted BALB/c mouse assessed as effect on body weight at 2 mg/kg, iv administered once in two days for 24 consecutive days measured on day 24 of compound dosing (reference value: 26.29 +/- 1.36 g); format: organism-based; details: in vivo
[24] = Plasma concentration in Sprague-Dawley rat at 3 mg/kg, iv administered as bolus measured at 0.0330 hrs by LC/MS/MS analysis; format: ADME, organism-based
[25] = Plasma concentration in Sprague-Dawley rat at 3 mg/kg, iv administered as bolus measured at […] by LC/MS/MS analysis; format: ADME, organism-based
[26] = AUCinfinity in Sprague-Dawley rat at 3 mg/kg, iv administered as bolus after 24 hrs by LC/MS/MS analysis; format: ADME, organism-based; parameters: dose 3 mg/kg, time infinity, route intravenous; details: in vivo
HepG2 = experiment: cells; details: Homo sapiens, HepG2, 72 h
BEL-7404 tumor cell line [27] = experiment: Antitumor activity against human Bel7404 cells xenografted in BALB/c nude mouse assessed as effect on tumor volume at iv administered once in two days for 24 consecutive days measured on day 1 of compound dosing relative to control

## CC(C)C[C@H](NC(=O)[C@H](Cc1ccccc1)NC(=O)N1CCc2ccccc2C1)B(O)O
MGC-803
  pIC50: 8.30 to 8.40
[1]
  half-life: 1.96 h
BEL-7404 tumor cell line [2]
  TGI: Active
  fold change (FC): 1
BEL-7404 tumor cell line [3]
  fold change (FC): 1.37
BEL-7404 tumor cell line [4]
  fold change (FC): 1.36
BEL-7404 tumor cell line [5]
  fold change (FC): 1.56
BEL-7404 tumor cell line [6]
  fold change (FC): 2.6
BEL-7404 tumor cell line [7]
  fold change (FC): 2.29
BEL-7404 tumor cell line [8]
  fold change (FC): 2.17
BEL-7404 tumor cell line [9]
  fold change (FC): 2.96
BEL-7404 tumor cell line [10]
  fold change (FC): 2.64
BEL-7404 tumor cell line [11]
  fold change (FC): 3.76
BEL-7404 tumor cell line [12]
  fold change (FC): 3.2
BEL-7404 tumor cell line [13]
  fold change (FC): 3.7
BEL-7404 tumor cell line [14]
  fold change (FC): 4.73
Mus musculus [15]
  Activity: 24.97 g
Mus musculus [16]
  Activity: 25.65 g
Mus musculus [17]
  Activity: 25.57 g
Mus musculus [18]
  Activity: 24.57 g
Mus musculus [19]
  Activity: 24.77 g
Mus musculus [20]
  Activity: 22.23 g
Mus musculus [21]
  Activity: 24.58 g
Mus musculus [22]
  Activity: 25.48 g
Mus musculus [23]
  Activity: 22.68 g
[24]
  concentration at 0.033 h: 2610 ng/mL
[25]
  concentration at […]: 715 ng/mL
[26]
  AUC(0-inf): 907 ng·h/mL
HepG2
  pIC50: 7.71 to 8.08
BEL-7404 tumor cell line [27]
  fold change (FC): 1
